Source: US5057520A, “7-(peptidylpyrolidinyl)naphthyridine antibacterial compounds” (Abbott Laboratories, priority 1989, dated 1991)
Converted amounts (≈) assume the structure as drawn. Counter-ions that a name gives are not always drawn. Like-named read-outs stand apart in the source and are kept apart here.

Tests used:
[1] = test system: Stap. Aureus CMX 553; test: Second in vitro MIC test, Brain Heart Infusion Broth (BHIB); assay type: cell-based
[2] = test system: Strep. pyogenes EES 61; test: as above; assay type: cell-based
[3] = test system: E. Coli Juhl; test: as above; assay type: cell-based
[4] = test system: Ps. Aeruginosa A5007; test: as above; assay type: cell-based
[5] = test system: P. Aeruginosa A5007; test: Acute mouse protection test; assay type: in vivo; settings: mice infected i.p. with P. Aeruginosa A5007, observed 7 days; for SC (ED50): SC dosing at 1 and 5 hours post-infection; for Oral (ED50): oral dosing at 1 and 5 hours post-infection
[6] = test system: Stap. Aureus NCTC 10649; test: Acute mouse protection test; assay type: in vivo; settings: mice infected i.p. with Stap. Aureus NCTC 10649, observed 7 days; for SC (ED50): SC dosing at 1 and 5 hours post-infection; for Oral (ED50): oral dosing at 1 and 5 hours post-infection
[7] = test system: E. Coli Juhl; test: Acute mouse protection test; assay type: in vivo; settings: mice infected i.p. with E. Coli JUHL, observed 7 days; for SC (ED50): SC dosing at 1 and 5 hours post-infection; for Oral (ED50): oral dosing at 1 and 5 hours post-infection
[8] = test system: MICROCOCCUS LUTEUS ATCC 9341; test: In vitro MIC, agar dilution (BHIA); assay type: cell-based
[9] = test system: MICROCOCCUS LUTEUS ATCC 4698; test: In vitro MIC, agar dilution (BHIA); assay type: cell-based
[10] = test system: ENTEROCOCCUS FAECIUM ATCC 8043; test: In vitro MIC, agar dilution (BHIA); assay type: cell-based
[11] = test system: STREPTOCOCCUS BOVIS A5169; test: In vitro MIC, agar dilution (BHIA); assay type: cell-based; settings: STREPTOCOCCUS BOVIS A5169
[12] = test system: STREPTOCOCCUS AGALACTIAE CMX 508; test: In vitro MIC, agar dilution (BHIA); assay type: cell-based; settings: STREPTOCOCCUS AGALACTIAE CMX 508
[13] = test system: STREPTOCOCCUS PYOGENES EES61; test: In vitro MIC, agar dilution (BHIA); assay type: cell-based; settings: STREPTOCOCCUS PYOGENES EES61
[14] = test system: STREPTOCOCCUS PYOGENES 930 CONST; test: In vitro MIC, agar dilution (BHIA); assay type: cell-based
[15] = test system: STREPTOCOCCUS PYOGENES 2548 INDUC; test: In vitro MIC, agar dilution (BHIA); assay type: cell-based
[16] = test system: ESCHERICHIA COLI JUHL; test: In vitro MIC, agar dilution (BHIA); assay type: cell-based
[17] = test system: ESCHERICHIA COLI H560; test: In vitro MIC, agar dilution (BHIA); assay type: cell-based
Text: The MIC results are in ug/ml.

[18] = test system: KLEBSIELLA PNEUMONIAE ATCC 8045; test: In vitro MIC, agar dilution (BHIA); assay type: cell-based
[19] = test system: PSEUDOMONAS AERUGINOSA BMH10; test: In vitro MIC, agar dilution (BHIA); assay type: cell-based
[20] = test system: PSEUDOMONAS AERUGINOSA A5007; test: In vitro MIC, agar dilution (BHIA); assay type: cell-based
[21] = test system: PSEUDOMONAS AERUGINOSA K799/WT; test: In vitro MIC, agar dilution (BHIA); assay type: cell-based
[22] = test system: PSEUDOMONAS AERUGINOSA K799/61; test: In vitro MIC, agar dilution (BHIA); assay type: cell-based
[23] = test system: PSEUDOMONAS CEPACIA 296I; test: In vitro MIC, agar dilution (BHIA); assay type: cell-based
[24] = Conversion of prodrug to parent drug in whole blood at 37° C.; assay type: in vitro ADME, Rat
Protocol: (§1) An aqueous solution of prodrug (Z) is spiked into fresh whole blood containing sodium heparin as an anticoagulant. The sample is mixed gently by inversion and placed in a 37° waterbath. At selected time intervals an 0.5 ml aliquot of blood is removed and placed in a chilled 1.5 ml centrifuge tube (ice temperature). Samples are centrifuges at 13,000 rpm for two minutes to separate plasma. An 0.2 ml aliquot of the plasma sample is combined with 0.2 ml internal standard (7-(4-amino-2-methyl-1-pyrrolidinyl)-1-(2,4-difluorophenyl)-6-fluoro-1,4-d ihydro-4-oxo-1,8-naphthyridine-3-carboxylic acid in 0.2M sodium phosphate pH 7.2 buffer) and 6 mls CH2 Cl2 :EtoH (9:1 by volume). Samples are capped and shaken gently for 10 minutes. Samples are centrifuges at 2500 rpm for 10 minutes (4° C.). The aqueous layer is aspirated to waste and the organic layer is transferred to a conical centrifuge tube and evaporated to dryness with a stream of dry air and low heat ([…]). Samples are reconstituted with 0.2 ml mobile phase followed by vortexing. Samples are centrifuges at 2500 rpm for 10 minutes to separate precipitate. The supernatant is transferred to a WISP vial with plastic insert for HPLC analysis.

[25] = as above; assay type: in vitro ADME, Human
Protocol: as §1

[26] = as above; assay type: in vitro ADME, Dog
Protocol: as §1

[27] = test system: PROVIDENCIA STUARTII CMX 640; test: In vitro MIC, agar dilution (BHIA); assay type: cell-based; settings: read-out: MIC

For `NC(Cc1ccc(O)cc1)C(=O)NC1CCN(c2nc3c(cc2F)c(=O)c(C(=O)O)cn3-c2ccc(F)cc2F)C1` (stereo not shown) [Example 13], the MIC [1] was 12.5 µg/mL (≈ 22 µM), the MIC [2] was 12.5 µg/mL (≈ 22 µM) and the MIC [3] was 12.5 µg/mL (≈ 22 µM). The MIC [4] was 50 µg/mL (≈ 88.1 µM), the “SC (ED50)” value [5] was 9.1 mg/kg/day and the “Oral (ED50)” value [5] was 15.1 mg/kg/day. The “SC (ED50)” value [6] was 0.4 mg/kg/day, the “Oral (ED50)” value [6] was 1.7 mg/kg/day and the “Solubility pH 7.4” value was 0.06 mg/ml.
For `NCC(=O)NC1CCN(c2nc3c(cc2F)c(=O)c(C(=O)O)cn3-c2ccc(F)cc2F)C1` (stereo not shown) [Example 7], the MIC [1] was 1.56 µg/mL (≈ 3.38 µM), the MIC [2] was 0.78 µg/mL (≈ 1.69 µM) and the MIC [3] was 0.78 µg/mL (≈ 1.69 µM). The MIC [4] was 12.5 µg/mL (≈ 27.1 µM), the “SC (ED50)” value [7] was 0.3 mg/kg/day and the “Oral (ED50)” value [7] was 5.0 mg/kg/day. The “SC (ED50)” value [5] was 4.2 mg/kg/day, the “Oral (ED50)” value [5] was 11.4 mg/kg/day and the “SC (ED50)” value [6] was 0.9 mg/kg/day. The “Oral (ED50)” value [6] was 2.4 mg/kg/day.
With “7-[3-Norvaline-amino-1-pyrrolidinyl]-1-(2,4-difluorophenyl)-6-fluoro-1,4-di hydro-4-oxo-1,8-naphthyridine-3-carboxylic acid hydrochloride [Example 2b]” the MIC [8] was 25 µg/mL, the MIC [9] was 25 µg/mL and the MIC [10] was “.78 µg/mL”. The MIC [11] was 1.56 µg/mL, the MIC [12] was 1.56 µg/mL and the MIC [13] was 1.56 µg/mL. For the same molecule, the MIC [14] was “.78 µg/mL”, the MIC [15] was “.39 µg/mL” and the MIC [16] was “.78 µg/mL”. For the same molecule, the MIC [17] was “.78 µg/mL”, the MIC [18] was “.39 µg/mL” and the MIC [19] was 6.2 µg/mL. The MIC [20] was 12.5 µg/mL, the MIC [21] was 6.2 µg/mL and the MIC [22] was “.39 µg/mL”. For the same molecule, the MIC [23] was 50 µg/mL, the “Half Life Rat” value [24] was 0.678 min and the “Half Life Human” value [25] was 75.5 s.
`O=C(O)c1cn(-c2ccc(F)cc2F)c2nc(N3CCC(NC(=O)C4CCCN4)C3)c(F)cc2c1=O` (stereo not shown) [Example 28] gave an MIC [1] of 1.56 µg/mL (≈ 3.11 µM), an MIC [2] of 1.56 µg/mL (≈ 3.11 µM) and an MIC [3] of 1.56 µg/mL (≈ 3.11 µM). The MIC [4] was 12.5 µg/mL (≈ 24.9 µM), the “SC (ED50)” value [5] was 3.1 mg/kg/day and the “Oral (ED50)” value [5] was 51.3 mg/kg/day. The “SC (ED50)” value [6] was 0.5 mg/kg/day, the “Oral (ED50)” value [6] was 3.2 mg/kg/day and the “Half Life Dog” value [26] was 41 m.
`CC(N)C(=O)NC1CCN(c2nc3c(cc2F)c(=O)c(C(=O)O)cn3-c2ccc(F)cc2F)C1` (stereo not shown) [Example 17] showed an MIC [1] of 2.0 µg/mL (≈ 4.21 µM), an MIC [3] of 0.5 µg/mL (≈ 1.05 µM) and an MIC [4] of 16 µg/mL (≈ 33.7 µM). The “SC (ED50)” value [7] was 0.4 mg/kg/day, the “Oral (ED50)” value [7] was 2.0 mg/kg/day and the “SC (ED50)” value [5] was 5.7 mg/kg/day. The “Oral (ED50)” value [5] was 12.5 mg/kg/day, the “SC (ED50)” value [6] was 0.7 mg/kg/day and the “Oral (ED50)” value [6] was 1.7 mg/kg/day. For the same molecule, the “Half Life Dog” value [26] was 97.0 s and the “Solubility pH 7.4” value was 0.12 mg/ml.
With `CCC[C@H](NC(=O)CNC(=O)CN)C(=O)NC1CCN(c2nc3c(cc2F)c(=O)c(C(=O)O)cn3-c2ccc(F)cc2F)C1` (stereo partly shown) [Example 30] the MIC [1] was 25 µg/mL (≈ 40.5 µM), the MIC [2] was 100 µg/mL (≈ 162 µM) and the MIC [3] was 25 µg/mL (≈ 40.5 µM). For the same molecule, the MIC [4] was > 100 µg/mL, the “SC (ED50)” value [5] was 4.8 mg/kg/day and the “Oral (ED50)” value [5] was 3.3 mg/kg/day. For the same molecule, the “SC (ED50)” value [6] was 0.7 mg/kg/day and the “Oral (ED50)” value [6] was 2.2 mg/kg/day.
With `CCC[C@H](NC(=O)[C@@H](N)CCC)C(=O)NC1CCN(c2nc3c(cc2F)c(=O)c(C(=O)O)cn3-c2ccc(F)cc2F)C1` (stereo partly drawn) [Example 3b, 7-(3-L-Norvaline-L-Norvalineamino-1-pyrrolidinyl)-1-(2,4-difluorophenyl)-6-fluoro-1,4-dihydro-4-oxo-1,8-naphthyridine-3-carboxylic acid hydrochloride] the MIC [2] was 12.5 µg/mL, the “SC (ED50)” value [7] was 0.5 mg/kg/day and the “Oral (ED50)” value [7] was 4.0 mg/kg/day. For the same molecule, the “SC (ED50)” value [5] was 6.2 mg/kg/day, the “Oral (ED50)” value [5] was 9.1 mg/kg/day and the “SC (ED50)” value [6] was 0.5 mg/kg/day. The “Oral (ED50)” value [6] was 1.8 mg/kg/day, the “Half Life Dog” value ([26]; conversion to parent drug in dog whole blood at 37° C., seconds) was 86.5 s and the “Half Life Rat” value ([24]; conversion to parent drug in rat whole blood at 37° C., seconds) was 0.858 min. The “Half Life Human” value ([25]; conversion to parent drug in human whole blood at 37° C., minutes) was 2.1 m.
In the case of `CC(C)CC(N)C(=O)NC1CCN(c2nc3c(cc2F)c(=O)c(C(=O)O)cn3-c2ccc(F)cc2F)C1` (stereo not shown) [Example 21], the MIC [1] is reported as 1.56 µg/mL (≈ 3.01 µM), the MIC [2] is reported as 6.2 µg/mL (≈ 12 µM) and the MIC [3] is reported as 1.56 µg/mL (≈ 3.01 µM). For the same molecule, the MIC [4] was 25 µg/mL (≈ 48.3 µM), the “SC (ED50)” value [5] was 3.9 mg/kg/day and the “Oral (ED50)” value [5] was 12.5 mg/kg/day. The “SC (ED50)” value [6] was 0.5 mg/kg/day, the “Oral (ED50)” value [6] was 2.4 mg/kg/day and the “Half Life Dog” value [26] was 55.8 s. For the same molecule, the “Solubility pH 7.4” value was 0.14 mg/ml.
With `CSCCC(N)C(=O)NC1CCN(c2nc3c(cc2F)c(=O)c(C(=O)O)cn3-c2ccc(F)cc2F)C1` (stereo not shown) [Example 23] the MIC [1] was 3.12 µg/mL (≈ 5.83 µM), the MIC [2] was 3.12 µg/mL (≈ 5.83 µM) and the MIC [3] was 3.12 µg/mL (≈ 5.83 µM). The MIC [4] was 5.0 µg/mL (≈ 9.34 µM), the “SC (ED50)” value [5] was 3.1 mg/kg/day and the “Oral (ED50)” value [5] was 11.5 mg/kg/day. The “SC (ED50)” value [6] was 0.5 mg/kg/day, the “Oral (ED50)” value [6] was 1.5 mg/kg/day and the “Half Life Dog” value [26] was 99.1 s.
In the case of `NC1CCN(c2nc3c(cc2F)c(=O)c(C(=O)O)cn3-c2ccc(F)cc2F)C1` (stereo not shown) [tosufloxacin, 7-(3-amino-1-pyrrolidinyl)-6-fluoro,1-(2,4-difluorophenyl)-1,4-dihydro-4-o xo-1,8-naphthyridine 3-carboxylic acid, reference compound], the MIC ([8]; ATCC9341, read-out: MIC) is reported as 1.56 µg/mL (≈ 3.86 µM), the MIC ([9]; ATCC4698, read-out: MIC) is reported as 0.78 µg/mL (≈ 1.93 µM) and the MIC [27] is reported as 1.56 µg/mL (≈ 3.86 µM). The MIC ([20]; read-out: MIC) was 0.78 µg/mL (≈ 1.93 µM), the MIC ([21]; read-out: MIC) was 0.78 µg/mL (≈ 1.93 µM) and the MIC ([23]; Burkholderia cepacia, read-out: MIC) was 3.1 µg/mL (≈ 7.67 µM). For the same molecule, the “SC (ED50)” value [7] was 0.2 mg/kg/day, the “Oral (ED50)” value [7] was 0.9 mg/kg/day and the “SC (ED50)” value [5] was > 25 mg/kg/day. For the same molecule, the “Oral (ED50)” value [5] was 6.2 mg/kg/day, the “SC (ED50)” value [6] was 0.6 mg/kg/day and the “Oral (ED50)” value [6] was 1.5 mg/kg/day.
